Assay results: ChEMBL document CHEMBL5465560, “Selectivity Literature for EUbOPEN Chemogenomic Library” (2024)
Blank lines part the entries; values can stand above or below the molecule they belong to.

Assays:
[1] = target: Calcium/calmodulin-dependent protein kinase type 1G (Homo sapiens) (UniProt Q96NX5); test: Selectivity interaction (KinomeScan (DiscoverX)) EUB0001049a CAMK1G; conditions: at 1 µM
[2] = target: T1, Mitogen-activated protein kinase 12 (Homo sapiens) (UniProt P53778); test: Selectivity interaction (Ambit KINOMEscan and KiNATiv profiling in Jurkat cells) EUB0000090b MAPK12; assay type: cell-based; conditions: at 1 µM
T1 sequence (whole entry): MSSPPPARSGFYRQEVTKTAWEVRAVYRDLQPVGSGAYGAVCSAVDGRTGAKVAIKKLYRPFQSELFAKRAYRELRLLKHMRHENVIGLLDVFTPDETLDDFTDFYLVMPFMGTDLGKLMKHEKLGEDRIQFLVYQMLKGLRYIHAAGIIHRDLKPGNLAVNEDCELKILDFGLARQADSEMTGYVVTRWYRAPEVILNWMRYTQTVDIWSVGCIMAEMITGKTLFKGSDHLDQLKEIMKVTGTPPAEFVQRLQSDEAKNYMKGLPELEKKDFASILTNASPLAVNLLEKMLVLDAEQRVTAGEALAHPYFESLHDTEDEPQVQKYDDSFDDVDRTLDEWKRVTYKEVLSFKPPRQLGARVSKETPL

[3] = target: T2, Dual specificity protein kinase TTK (Homo sapiens) (UniProt P33981); test: Selectivity interaction (LanthaScreen Eu Kinase Binding Assay) EUB0001632a TTK; conditions: at 10 µM
T2 sequence (whole entry): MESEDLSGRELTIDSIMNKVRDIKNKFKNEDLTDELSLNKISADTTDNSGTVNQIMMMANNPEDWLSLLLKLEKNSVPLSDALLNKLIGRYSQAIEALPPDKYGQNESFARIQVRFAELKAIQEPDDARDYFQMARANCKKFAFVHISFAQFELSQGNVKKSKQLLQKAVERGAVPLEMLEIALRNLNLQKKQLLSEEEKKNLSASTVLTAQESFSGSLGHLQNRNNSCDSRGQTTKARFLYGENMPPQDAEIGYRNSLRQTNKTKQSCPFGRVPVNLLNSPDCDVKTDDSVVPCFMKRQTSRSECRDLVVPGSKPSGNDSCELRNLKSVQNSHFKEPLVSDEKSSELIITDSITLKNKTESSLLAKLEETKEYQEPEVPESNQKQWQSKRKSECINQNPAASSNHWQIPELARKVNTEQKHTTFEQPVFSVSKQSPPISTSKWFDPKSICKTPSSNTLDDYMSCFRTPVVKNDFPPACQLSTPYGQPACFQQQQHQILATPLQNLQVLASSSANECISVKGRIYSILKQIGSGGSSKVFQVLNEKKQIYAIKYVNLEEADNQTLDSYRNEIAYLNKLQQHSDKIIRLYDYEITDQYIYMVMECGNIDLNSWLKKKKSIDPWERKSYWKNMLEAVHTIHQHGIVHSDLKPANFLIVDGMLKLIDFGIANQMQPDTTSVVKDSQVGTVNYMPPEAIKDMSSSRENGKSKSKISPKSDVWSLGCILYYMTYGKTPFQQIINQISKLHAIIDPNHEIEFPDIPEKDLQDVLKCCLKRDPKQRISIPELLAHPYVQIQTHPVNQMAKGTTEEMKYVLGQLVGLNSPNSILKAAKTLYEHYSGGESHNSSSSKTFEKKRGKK

[4] = target: Death-associated protein kinase 3 (Homo sapiens) (UniProt O43293); conditions: at 10 µM
[5] = target: Serine/threonine-protein kinase B-raf (Homo sapiens) (UniProt P15056); conditions: at 10 µM
[6] = target: Homeodomain-interacting protein kinase 3 (Homo sapiens, UniProt Q9H422); test: Selectivity interaction (KinomeScan (DiscoverX)) EUB0000595a HIPK3; conditions: at 10 µM
[7] = target: Receptor tyrosine-protein kinase erbB-4 (Homo sapiens, UniProt Q15303); test: Selectivity interaction (KinomeScan (DiscoverX)) EUB0000092b ERBB4; conditions: at 10 µM
[8] = target: Tyrosine-protein kinase Srms (Homo sapiens) (UniProt Q9H3Y6); test: Selectivity interaction (KinomeScan (DiscoverX)) EUB0000655a SRMS; conditions: at 10 µM
[9] = target: T3, Serine/threonine-protein kinase tousled-like 1 (Homo sapiens) (UniProt Q9UKI8); test: Selectivity interaction (KinomeScan (DiscoverX)) EUB0001619a TLK1; conditions: at 1 µM
T3 sequence (whole entry): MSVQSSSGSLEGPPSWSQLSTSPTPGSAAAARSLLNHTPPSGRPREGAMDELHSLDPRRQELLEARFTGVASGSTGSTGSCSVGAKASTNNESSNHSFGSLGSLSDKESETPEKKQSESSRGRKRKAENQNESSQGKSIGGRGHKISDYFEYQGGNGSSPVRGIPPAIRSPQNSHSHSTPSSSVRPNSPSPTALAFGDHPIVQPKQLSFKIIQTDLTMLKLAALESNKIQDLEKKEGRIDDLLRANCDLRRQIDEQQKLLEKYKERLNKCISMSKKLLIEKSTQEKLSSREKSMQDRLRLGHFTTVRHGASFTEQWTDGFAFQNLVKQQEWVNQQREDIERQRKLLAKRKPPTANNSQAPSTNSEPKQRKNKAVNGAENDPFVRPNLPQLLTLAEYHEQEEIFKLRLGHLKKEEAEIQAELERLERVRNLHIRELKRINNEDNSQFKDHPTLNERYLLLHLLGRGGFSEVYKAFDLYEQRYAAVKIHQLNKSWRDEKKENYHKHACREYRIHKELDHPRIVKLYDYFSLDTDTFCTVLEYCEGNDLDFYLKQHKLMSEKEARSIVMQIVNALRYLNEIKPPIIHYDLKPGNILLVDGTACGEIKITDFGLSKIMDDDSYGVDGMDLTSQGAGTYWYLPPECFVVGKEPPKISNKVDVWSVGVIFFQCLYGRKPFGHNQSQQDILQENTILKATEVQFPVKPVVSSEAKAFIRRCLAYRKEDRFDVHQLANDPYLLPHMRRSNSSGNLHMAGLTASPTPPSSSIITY

[10] = target: T4, Dual specificity mitogen-activated protein kinase kinase 7 (Homo sapiens) (UniProt O14733); test: Selectivity interaction (KinomeScan (DiscoverX)) EUB0001619a MAP2K7; conditions: at 1 µM
T4 sequence (whole entry): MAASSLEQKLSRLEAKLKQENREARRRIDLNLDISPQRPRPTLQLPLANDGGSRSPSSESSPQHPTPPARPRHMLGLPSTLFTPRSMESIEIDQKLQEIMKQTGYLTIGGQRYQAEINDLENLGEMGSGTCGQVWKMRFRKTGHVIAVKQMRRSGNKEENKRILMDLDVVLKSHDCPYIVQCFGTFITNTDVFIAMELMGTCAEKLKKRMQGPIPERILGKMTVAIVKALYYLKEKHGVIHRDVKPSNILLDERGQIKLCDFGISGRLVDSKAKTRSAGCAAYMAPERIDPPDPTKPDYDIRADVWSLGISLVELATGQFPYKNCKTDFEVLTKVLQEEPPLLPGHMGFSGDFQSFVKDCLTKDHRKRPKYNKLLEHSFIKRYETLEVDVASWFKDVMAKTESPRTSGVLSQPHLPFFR

[11] = target: Serine/threonine-protein kinase Chk2 (Homo sapiens) (UniProt O96017); test: Selectivity interaction (KinomeScan (DiscoverX)) EUB0000607a CHEK2; conditions: at 10 µM
Serine/threonine-protein kinase Chk2 (Homo sapiens), sequence (O96017 whole entry): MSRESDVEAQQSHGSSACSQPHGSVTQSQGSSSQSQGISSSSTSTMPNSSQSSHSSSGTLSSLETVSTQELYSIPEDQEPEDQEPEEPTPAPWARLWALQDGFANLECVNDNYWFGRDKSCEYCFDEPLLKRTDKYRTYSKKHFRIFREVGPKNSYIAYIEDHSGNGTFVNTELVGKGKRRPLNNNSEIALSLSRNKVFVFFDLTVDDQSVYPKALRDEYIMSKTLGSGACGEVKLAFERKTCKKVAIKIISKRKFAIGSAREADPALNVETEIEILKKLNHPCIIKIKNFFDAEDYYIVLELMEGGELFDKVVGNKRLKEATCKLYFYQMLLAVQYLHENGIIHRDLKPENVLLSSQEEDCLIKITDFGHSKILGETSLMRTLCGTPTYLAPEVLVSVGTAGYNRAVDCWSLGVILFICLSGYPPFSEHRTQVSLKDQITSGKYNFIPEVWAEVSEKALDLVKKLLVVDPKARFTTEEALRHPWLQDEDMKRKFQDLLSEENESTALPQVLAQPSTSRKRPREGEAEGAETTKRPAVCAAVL

Receptor tyrosine-protein kinase erbB-4, sequence (Q15303 whole entry): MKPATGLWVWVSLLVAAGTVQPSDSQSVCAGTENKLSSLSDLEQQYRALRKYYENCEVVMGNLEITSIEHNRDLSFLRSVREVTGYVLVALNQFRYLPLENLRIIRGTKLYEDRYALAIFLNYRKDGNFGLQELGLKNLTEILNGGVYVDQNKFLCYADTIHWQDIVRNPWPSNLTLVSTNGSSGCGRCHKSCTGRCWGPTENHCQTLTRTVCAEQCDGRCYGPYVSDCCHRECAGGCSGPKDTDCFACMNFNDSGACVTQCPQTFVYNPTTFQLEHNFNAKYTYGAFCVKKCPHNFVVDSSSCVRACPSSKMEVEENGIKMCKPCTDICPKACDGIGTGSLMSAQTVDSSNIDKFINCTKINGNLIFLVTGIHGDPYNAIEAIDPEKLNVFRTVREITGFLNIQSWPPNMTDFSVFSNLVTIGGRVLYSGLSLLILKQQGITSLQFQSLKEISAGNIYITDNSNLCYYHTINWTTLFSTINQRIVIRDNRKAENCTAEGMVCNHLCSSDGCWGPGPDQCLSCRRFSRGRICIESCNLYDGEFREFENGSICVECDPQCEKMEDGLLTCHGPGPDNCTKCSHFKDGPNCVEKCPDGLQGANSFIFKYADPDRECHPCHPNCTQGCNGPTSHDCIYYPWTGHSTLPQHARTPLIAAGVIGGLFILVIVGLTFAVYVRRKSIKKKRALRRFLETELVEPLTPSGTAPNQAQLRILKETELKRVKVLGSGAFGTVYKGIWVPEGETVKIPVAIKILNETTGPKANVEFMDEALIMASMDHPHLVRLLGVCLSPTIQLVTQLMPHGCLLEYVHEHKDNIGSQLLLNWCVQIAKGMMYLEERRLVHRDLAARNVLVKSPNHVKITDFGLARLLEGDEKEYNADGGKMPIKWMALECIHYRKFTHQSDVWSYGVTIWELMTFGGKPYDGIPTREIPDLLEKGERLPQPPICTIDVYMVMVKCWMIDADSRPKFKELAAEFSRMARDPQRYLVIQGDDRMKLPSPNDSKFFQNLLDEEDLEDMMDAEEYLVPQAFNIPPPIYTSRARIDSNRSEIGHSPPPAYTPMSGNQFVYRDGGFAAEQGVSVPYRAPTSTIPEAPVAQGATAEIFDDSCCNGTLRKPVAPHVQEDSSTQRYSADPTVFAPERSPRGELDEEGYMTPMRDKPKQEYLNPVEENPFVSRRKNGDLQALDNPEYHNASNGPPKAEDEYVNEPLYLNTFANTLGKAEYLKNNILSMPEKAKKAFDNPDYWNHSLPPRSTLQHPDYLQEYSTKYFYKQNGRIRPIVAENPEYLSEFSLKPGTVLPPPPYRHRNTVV
Serine/threonine-protein kinase B-raf (Homo sapiens), sequence (P15056 whole entry): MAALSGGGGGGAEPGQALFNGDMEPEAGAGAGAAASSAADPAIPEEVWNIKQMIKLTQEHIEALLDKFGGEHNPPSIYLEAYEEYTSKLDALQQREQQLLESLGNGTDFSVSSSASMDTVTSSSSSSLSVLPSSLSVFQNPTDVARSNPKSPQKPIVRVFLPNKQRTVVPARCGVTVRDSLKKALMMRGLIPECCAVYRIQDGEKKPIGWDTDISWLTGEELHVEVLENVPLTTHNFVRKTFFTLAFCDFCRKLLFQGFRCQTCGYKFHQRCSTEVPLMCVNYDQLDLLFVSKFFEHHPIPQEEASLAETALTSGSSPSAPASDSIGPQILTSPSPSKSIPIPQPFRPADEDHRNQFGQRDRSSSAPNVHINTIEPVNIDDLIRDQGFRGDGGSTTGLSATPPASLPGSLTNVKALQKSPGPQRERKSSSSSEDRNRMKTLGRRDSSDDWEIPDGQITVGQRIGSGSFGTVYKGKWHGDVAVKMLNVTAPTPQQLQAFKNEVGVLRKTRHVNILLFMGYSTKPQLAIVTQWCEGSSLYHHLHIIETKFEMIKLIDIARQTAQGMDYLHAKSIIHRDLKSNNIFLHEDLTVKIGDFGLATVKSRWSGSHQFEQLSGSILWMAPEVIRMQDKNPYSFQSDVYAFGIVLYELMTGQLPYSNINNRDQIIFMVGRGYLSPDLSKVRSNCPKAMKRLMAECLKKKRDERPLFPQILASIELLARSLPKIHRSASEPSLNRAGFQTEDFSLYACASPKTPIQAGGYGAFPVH
Homeodomain-interacting protein kinase 3, sequence (Q9H422 whole entry, looked up): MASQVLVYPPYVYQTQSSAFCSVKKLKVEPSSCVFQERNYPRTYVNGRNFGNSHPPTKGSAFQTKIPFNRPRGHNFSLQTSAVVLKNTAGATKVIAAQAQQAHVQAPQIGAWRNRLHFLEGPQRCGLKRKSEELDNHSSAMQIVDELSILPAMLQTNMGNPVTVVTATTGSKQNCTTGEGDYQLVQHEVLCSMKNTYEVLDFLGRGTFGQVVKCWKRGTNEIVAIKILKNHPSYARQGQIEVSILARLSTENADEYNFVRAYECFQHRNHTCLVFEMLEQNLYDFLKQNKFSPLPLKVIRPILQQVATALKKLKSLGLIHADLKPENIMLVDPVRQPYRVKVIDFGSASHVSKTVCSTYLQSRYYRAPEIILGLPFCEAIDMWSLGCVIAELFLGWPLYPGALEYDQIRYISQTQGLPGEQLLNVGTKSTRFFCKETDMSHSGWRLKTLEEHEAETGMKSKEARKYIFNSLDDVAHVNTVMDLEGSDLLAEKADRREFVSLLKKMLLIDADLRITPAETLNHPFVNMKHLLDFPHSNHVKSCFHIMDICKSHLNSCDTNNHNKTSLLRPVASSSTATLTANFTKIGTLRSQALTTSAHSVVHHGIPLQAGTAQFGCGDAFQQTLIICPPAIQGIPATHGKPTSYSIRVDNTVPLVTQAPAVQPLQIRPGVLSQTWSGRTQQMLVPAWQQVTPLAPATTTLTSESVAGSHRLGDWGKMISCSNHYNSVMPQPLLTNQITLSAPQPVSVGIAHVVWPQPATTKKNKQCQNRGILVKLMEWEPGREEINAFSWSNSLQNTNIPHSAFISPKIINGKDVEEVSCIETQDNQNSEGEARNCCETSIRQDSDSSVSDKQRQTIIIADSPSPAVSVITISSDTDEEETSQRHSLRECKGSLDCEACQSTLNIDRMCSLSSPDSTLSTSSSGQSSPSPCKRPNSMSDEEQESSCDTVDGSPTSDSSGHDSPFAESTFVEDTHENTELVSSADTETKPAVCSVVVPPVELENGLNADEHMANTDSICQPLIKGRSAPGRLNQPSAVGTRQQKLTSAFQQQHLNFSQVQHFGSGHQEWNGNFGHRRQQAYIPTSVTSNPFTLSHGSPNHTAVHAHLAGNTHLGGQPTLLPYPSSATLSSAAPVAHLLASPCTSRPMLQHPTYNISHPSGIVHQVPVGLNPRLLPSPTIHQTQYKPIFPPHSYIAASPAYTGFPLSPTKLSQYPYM
Death-associated protein kinase 3 (Homo sapiens), sequence (O43293 whole entry, looked up): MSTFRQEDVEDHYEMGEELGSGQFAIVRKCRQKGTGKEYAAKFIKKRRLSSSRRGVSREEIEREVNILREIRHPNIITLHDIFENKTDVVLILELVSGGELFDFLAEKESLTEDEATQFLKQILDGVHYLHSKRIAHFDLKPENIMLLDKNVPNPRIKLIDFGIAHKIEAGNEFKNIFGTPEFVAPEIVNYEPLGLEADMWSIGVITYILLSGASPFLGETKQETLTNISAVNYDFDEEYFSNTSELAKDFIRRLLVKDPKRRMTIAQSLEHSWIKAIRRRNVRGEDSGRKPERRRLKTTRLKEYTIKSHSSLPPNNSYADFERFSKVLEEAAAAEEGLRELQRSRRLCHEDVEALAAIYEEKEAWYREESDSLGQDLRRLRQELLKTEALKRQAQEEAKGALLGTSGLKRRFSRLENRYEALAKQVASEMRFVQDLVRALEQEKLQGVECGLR
Tyrosine-protein kinase Srms (Homo sapiens), sequence (Q9H3Y6 whole entry): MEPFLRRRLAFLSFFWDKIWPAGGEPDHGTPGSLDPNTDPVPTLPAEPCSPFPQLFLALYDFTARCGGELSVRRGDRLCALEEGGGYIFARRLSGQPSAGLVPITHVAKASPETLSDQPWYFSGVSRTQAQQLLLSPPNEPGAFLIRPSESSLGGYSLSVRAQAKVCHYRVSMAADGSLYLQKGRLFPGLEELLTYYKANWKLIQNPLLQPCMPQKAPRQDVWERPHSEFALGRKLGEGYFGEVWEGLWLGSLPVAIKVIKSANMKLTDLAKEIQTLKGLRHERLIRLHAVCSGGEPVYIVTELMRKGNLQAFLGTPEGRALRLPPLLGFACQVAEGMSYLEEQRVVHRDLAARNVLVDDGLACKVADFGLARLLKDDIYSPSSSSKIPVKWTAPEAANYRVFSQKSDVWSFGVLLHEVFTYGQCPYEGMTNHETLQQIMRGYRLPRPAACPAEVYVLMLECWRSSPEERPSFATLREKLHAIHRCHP

SMILES: COc1cc(Nc2nc(C)cc(-c3cnn4nc(OC)ccc34)n2)cc(C(F)(F)F)c1
% of control [1]: 95%

SMILES: CN(C)C/C=C/C(=O)Nc1ccc(C(=O)N2CCCC(Nc3ncc(Cl)c(-c4c[nH]c5ccccc45)n3)C2)cc1 (stereo unspecified)
% of control [2]: 78%

% of inhibition [3]: -54.1%
SMILES: Cn1cc(-n2cnc3c(NCc4nc5cc(Cl)c(Cl)cc5[nH]4)nc(N4CCOCC4)nc32)cn1

% of control [5]: 100%
SMILES: CCN(CC)CCCCNc1ncc2cc(-c3cc(OC)cc(OC)c3)c(NC(=O)NC(C)(C)C)nc2n1
% of control [4]: 100%

SMILES: COCC(=O)NC/C=C/c1ccc2ncnc(Nc3ccc(Oc4ccc(C)nc4)c(C)c3)c2c1 [CP-724714]
% of control [6]: 100%

SMILES: CCC(=O)N1CCN(c2ccc(-n3c(=O)ccc4cnc5ccc(-c6cnc7ccccc7c6)cc5c43)cc2C(F)(F)F)CC1
% of control [7]: 100%

SMILES: CN(C)CCOc1ccc(-c2nc(-c3ccncc3)c(-c3ccc4c(c3)CC/C4=N\O)[nH]2)cc1
% of control [8]: 74%

SMILES: N#Cc1cccc(-c2c[nH]c3ncnc(N4CCOCC4)c23)c1
% of control [9]: 99%
% of control [10]: 80%

SMILES: CNC(=O)Nc1ccc(-c2nc(N3CC4CCC(C3)O4)c3cnn(C4CCC5(CC4)OCCO5)c3n2)cc1
% of control [11]: 84%
